Patent publication EP1787679A1, “Use of compounds binding to the sigma receptor for the treatment of diabetes-associated pain” (LABORATORIOS DEL DR. ESTEVE, S.A., priority 2005, dated 2007)

Tested on: STZ-induced mice
Assay: von-Frey test, mechanical allodynia in streptozotocin (STZ)-induced diabetic mice
Type: in vivo
Conditions: paw withdrawal response to von-Frey filaments
Source text: The pancreatic β-cell cytotoxic agent STZ is widely used to induce diabetes in rodents. The glucosamine-nitrosourea compound STZ is taken up into the insulin-producing β-cells of the islets of Langerhan's via the GLUT-2 glucose transporter. The cytotoxic effect of STZ is mediated through a decrease in NAD levels, and the formation of intracellular free radicals leading to various toxic effects, including DNA-strand breaks (Schnedl et al., 1994). […] STZ-induced diabetic rodents show common features of human diabetes that include damage to the eye, kidney, blood vessels, and nervous system. Diabetic neuropathic pain occurs mainly due to the damage in the nervous system (Sima and Sugimoto, 1999).
Method: In the present study, diabetes is induced in mice by a single i.v. injection of STZ (200 mg/kg) as reported previously (Kamei et al., 1991; Rashid and Ueda, 2002). […] The plasma glucose level in the mice is measured in blood samples obtained from tail vein. […]
Thermal hyperalgesia and mechanical allodynia is measured at different time points (1-21 days) after STZ injection. Mechanical allodynia is measured using von-Frey filaments, a well-established method known by those skilled in the art, where the paw withdrawal response is measured. Similarly, thermal hyperalgesia is measured as the latency to paw withdrawal evoked by exposing the right hind paw to a thermal stimulus. […]

CN1CCN(CCc2ccc(Cl)c(Cl)c2)CC1 [BD-1063, 1-(3,4-dichlorophenethyl)-4-methylpiperazine]
mechanical allodynia in the von-Frey test: significantly antagonizes mechanical allodynia
